Data set [1] is described as follows: In vitro human hepatic clearance in cellular relay format. Conditions: cryopreserved hepatocytes in suspension (relay format); human hepatocytes relay, 5 incubations of 4 hrs, 0.5E+06 viable cells/mL. In kind it is in vitro ADME. How it is done: (§1) Example C: In Vitro Human Hepatic Clearance in Cellular Relay Format
(§2) Working stocks of individual test articles were prepared at concentrations of 100 μM by diluting 10 mM stocks prepared in DMSO 100-fold (v:v) into ACN/1H2O (50/50, v:v). Human cryopreserved hepatocytes were thawed in a 37° C. water bath in <2 min., suspended in thawing media, and then centrifuged at 100×g for 10 min. Thawing media was aspirated, and pelleted hepatocytes were resuspended into incubation media at 1.5E+06 cells/mL. Cell viability was determined using an Acridine Orange/Propidium Iodine stain, and hepatocytes were further diluted with incubation media to 0.5E+06 viable cells/mL. Hepatocyte aliquots of 495 μL were added to wells of a 24-well plate, and test article incubations were initiated by the addition of 5 μL of 100 μM working stocks. Plates were incubated at 37° C. in a 5% CO2 atmosphere at 95% relative humidity on an orbital shaker at 300 rpm. Incubations were performed in duplicate. At time=0 and 4 hrs., aliquots of each incubation were extracted with 6 volumes ACN containing internal standards. After 4 hrs., hepatocytes were removed from the incubations via centrifugation, and supernatants were stored frozen until the following day at which point incubations were reinitiated by diluting thawed supernatants with freshly thawed hepatocytes in incubation media, again to a final concentration of 0.5E+06 viable cells/mL. These steps were repeated for a total of 5 incubations of 4 hrs. each covering 20 total hours of incubation. Incubational losses due to cellular uptake, nonspecific binding, and dilution at each relay step were corrected for. Supernatants of all incubation aliquots were diluted into ultrapure water prior to analysis via LC/MS/MS. In vitro intrinsic clearances (CLint) in μL/min/IE+06 cells were determined for each incubation from calculated in vitro half-lives determined using a standard log-linear regression approach. In vitro CLint values were scaled up using the following physiological scaling factors: 99E+06 cells/g human liver and 25.7 g human liver/kg body weight. Scaled intrinsic clearance values were finally introduced to the well-stirred liver model for the purpose of calculating predicted human hepatic clearance (CLhep,pred) in mL/min/kg assuming a human liver blood flow of 20.7 mL/min/kg and making no corrections for test article binding to red blood cells, plasma proteins, or components of the incubation system. S-Warfarin, Disopyramide and Diazepam were used as assay controls.

Data set [2] has as its system Human cryopreserved hepatocytes. Described as above. Particulars: predicted human hepatic clearance, well-stirred liver model, scaled from in vitro CLint. The class given is in vitro ADME. The method, then: as §1, §2
In data set [3] the test system is MDA-MB-436 (mutated BRCA1) cell lines. Description: Cell growth inhibition assay (CellTiter-Glo cell viability, 7 days). The class given is cell-based. Conditions: Homo sapiens, 168 h, MDA-MB-436 cells. (Cellular ATP, detected with luciferase, serves as a proxy for viable cell number.)
For data set [4], the system named is DLD-1 BRCA2(−/−). The description is as above. The class given is cell-based. Conditions: Homo sapiens, 168 h, DLD-1 BRCA2(-/-) cells.
Data set [5] concerns DLD-1 parental. Described as above. In kind it is cell-based. Conditions: Homo sapiens, 168 h, DLD-1 parental cells. The source says:
Example A: Cell Growth Inhibition Assay
The objective of this study is to evaluate the effect of invention compounds on cell proliferation through the cell viability assay in DLD-1 BRCA2(−/−) and parental isogenic pair and MDA-MB-436 (mutated BRCA1) cell lines. The CellTiter-Glo (CTG) based cell viability assay is designed to determine the number of viable cells in the culture because of compound effect, by quantifying ATP, which indicates the presence of metabolically active cells.
DLD-1 BRCA2(−/−) and parental isogenic pair were cultured in RPMI 1640 supplemented with 10% fetal bovine serum (FBS), and MDA-MB-436 cells were cultured in DMEM supplemented with 10% FBS. Both are culture at 37° C. with 5% CO2. Invention compounds were distributed to the 384 well plate (Corning, 3764) using Echo acoustic liquid handler to form a 1:3 serially diluted final concentration with top dose of 10 or 30 μM. The cells were seeded into the plate in the density of 50 cells/well (DLD-1 parental), 200 cells/well (DLD-1 BRCA2−/−), or 500 cells/well (MDA-MB-436). After a short spun, the cells were cultured in a well moisturized incubator at 37° C. with 5% CO2 for 7 days without disturbance. The cell viability was measured by CellTiter Glo 2.0 assay kit (Promega, G9243), and growth inhibition rate was calculated and plotted against final compound concentration, and the data were fitted in Xfit to generate IC50.

Data on 19 molecules can be found in patent US11591331B2, “PARP1 inhibitors and uses thereof” (Xinthera, Inc., priority 2021, dated 2023).

Each structure is given as a SMILES string. Bounds are passed on as bounds.

In the case of `CCc1cc2ncc(CN3CCN(c4ccc(C(=O)N[C@H](C)COC)nc4)CC3)cc2[nH]c1=O` [Example 56], in data set [1], the half-life at 1 µM was over 62.1 h. Besides, in data set [2], the “Clhep,pred” value is recorded as under 0.9 mL/min/kg. Moreover, the figures for the EC50 in data set [3] and in data set [4] were 0.0022 µM and 0.0071 µM, respectively.

In the case of `CCc1cc2ncc(CN3CCN(c4ccc(C(=O)NC)nc4C#N)CC3)cc2[nH]c1=O` [Example 1, 6-cyano-5-{4-[(7-ethyl-6-oxo-5H-1,5-naphthyridin-3-yl)methyl]piperazin-1-yl}-N-methylpyridine-2-carboxamide], the 50% effective concentration (EC50) was determined as 5000 µM in data set [5], 0.00063 µM in data set [3] and 0.0014 µM in data set [4]. In addition, the half-life at 1 µM in data set [1] was determined as 32.5 h. The “Clhep,pred” value in data set [2] was 1.67 mL/min/kg.

As to `O=C(NC1CC1)c1ccc(N2CCN(Cc3cnc4cc(C5CC5)c(=O)[nH]c4c3)CC2)cn1` [Example 24, N-cyclopropyl-5-{4-[(7-cyclopropyl-6-oxo-5H-1,5-naphthyridin-3-yl)methyl]piperazin-1-yl}pyridine-2-carboxamide], the concentration for a half-maximal effect (EC50) in data set [5] is over 30 µM; in data set [3], 0.0014 µM; in data set [4], 0.0025 µM. Besides, the half-life at 1 µM in data set [1] is over 62.1 h. In addition, the “Clhep,pred” value in data set [2] is under 0.9 mL/min/kg.

`CCc1cc2ncc(CN3CCN(c4ccc(C(=O)NC)nc4)CC3)cc2[nH]c1=O` [AZD5305] registered a half-life at 1 µM in data set [1] of 31.8 h. For the same molecule, the “Clhep,pred” value in data set [2] is recorded as 1.69 mL/min/kg.

`CNC(=O)c1ccc(N2CCN(Cc3cnc4cc(C5CC5)c(=O)[nH]c4c3)CC2)cn1` [Example 15, 5-{4-[(7-cyclopropyl-6-oxo-5H-1,5-naphthyridin-3-yl)methyl]piperazin-1-yl}-N-methylpyridine-2-carboxamide]: the values for the EC50 in data set [5], in data set [3] and in data set [4] were over 30 µM, 0.0013 µM and 0.0018 µM, respectively. The half-life at 1 µM in data set [1] is over 62.1 h. Further, in data set [2], the “Clhep,pred” value is under 0.9 mL/min/kg.

`CCc1cc2ncc(CN3C[C@@H]4C(c5ccc(C(=O)NC)nc5)[C@@H]4C3)cc2[nH]c1=O` (stereo partly shown) [Example 146]: the EC50 was over 30 µM in data set [5], 0.0092 µM in data set [3] and 0.32 µM in data set [4].

Regarding `CNC(=O)c1ccc(N2CCN(Cc3ccc4cc(OC(F)F)c(=O)[nH]c4c3)CC2)cn1` [Example 31], the EC50 was found to be 56 µM in data set [5], 0.015 µM in data set [3] and 0.048 µM in data set [4].

On to `CNC(=O)c1ccc(N2CCN(Cc3cnc4c(c3)[nH]c(=O)c3ccoc34)CC2)cn1` [Example 72], for which the EC50 was over 30 µM in data set [5], 0.0025 µM in data set [3] and 0.0042 µM in data set [4].

Turning to `CNC(=O)c1ccc(N2CCN(Cc3ccc4c(c3)[nH]c(=O)c3ccoc34)CC2)cn1` [Example 11, N-methyl-5-[4-({4-oxo-5H-furo[3,2-c]quinolin-7-yl}methyl)piperazin-1-yl]pyridine-2-carboxamide], the half-maximal effective concentration (EC50) in data set [5] was 440 µM; in data set [3] it was 0.0011 µM; in data set [4], 0.0028 µM.

Regarding `CCc1cc2ncc(CN3CC=C(c4ccc(C(=O)NC)nc4)CC3)cc2[nH]c1=O` [Example 8, 1′-((7-ethyl-6-oxo-5,6-dihydro-1,5-naphthyridin-3-yl)methyl)-N-methyl-1′,2′,3′,6′-tetrahydro-[3,4′-bipyridine]-6-carboxamide], the results for the EC50 in data set [5], in data set [3] and in data set [4] were 89 µM, 0.00025 µM and 0.001 µM, respectively.

Regarding `CCc1cc2ncc(CN3CCN(c4ccc(C(=O)NC)cc4C#N)CC3)cc2[nH]c1=O` [Example 17, 3-cyano-4-{4-[(7-ethyl-6-oxo-5H-1,5-naphthyridin-3-yl)methyl]piperazin-1-yl}-N-methylbenzamide], the results for the EC50 in data set [5], in data set [3] and in data set [4] were over 30 µM, 0.0011 µM and 0.0021 µM, respectively.

`CCc1cc2ncc(CN3CCN4c5ccc(C(=O)NC)nc5OC[C@H]4C3)cc2[nH]c1=O` [Example 22A, (R)-3-((7-ethyl-6-oxo-5,6-dihydro-1,5-naphthyridin-3-yl)methyl)-N-methyl-1,2,3,4,4a,5-hexahydropyrazino[1,2-d]pyrido[2,3-b][1,4]oxazine-8-carboxamide]: the EC50 in data set [5] was over 30 µM; in data set [3], 0.001 µM; in data set [4] it was 0.0015 µM.

With `CCc1cc2ncc(CN3CCN(c4ccc(C(=O)NC)nc4)[C@H](C)C3)cc2[nH]c1=O` [Example 2, 5-[(2R)-4-[(7-ethyl-6-oxo-5H-1,5-naphthyridin-3-yl)methyl]-2-methylpiperazin-1-yl]-N-methylpyridine-2-carboxamide], the values for the EC50 in data set [5], in data set [3] and in data set [4] were over 30 µM, 0.004 µM and 0.0048 µM, respectively. Also, the half-life at 1 µM in data set [1] amounted to 31.5 h. For the same molecule, the “Clhep,pred” value in data set [2] is on record as 1.71 mL/min/kg.

As for `CCc1cc2ncc(CN3CC(Oc4ccc(C(=O)NC)nc4)C3)cc2[nH]c1=O` [Example 25, 5-({1-[(7-ethyl-6-oxo-5H-1,5-naphthyridin-3-yl)methyl]azetidin-3-yl}oxy)-N-methylpyridine-2-carboxamide], the EC50 in data set [5] was over 30 µM; in data set [3], 0.0042 µM; in data set [4], 0.0087 µM.

Take `CCc1cc2ncc(CN3CCN(c4ccc(C(=O)NC)nc4)[C@H]4C[C@H]43)cc2[nH]c1=O` (stereo in doubt) [Example 28]: the EC50 in data set [5] was determined as 33 µM; in data set [3], 0.0008 µM; in data set [4] it was 0.0032 µM.

In the case of `CCc1cc2ncc(CN3CCN(c4ccc(-n5cnnc5)cc4)CC3)cc2[nH]c1=O` [Example 32], the EC50 is over 30 µM in data set [5], 0.015 µM in data set [3] and 0.077 µM in data set [4].

For the molecule `CCc1cc2ncc(CN3CCN(c4cnc(C(=O)NC)c(F)c4)CC3)cc2[nH]c1=O` [Example 5, 5-(4-((7-ethyl-6-oxo-5,6-dihydro-1,5-naphthyridin-3-yl)methyl)piperazin-1-yl)-3-fluoro-N-methylpicolinamide], the EC50 in data set [5] was 470 µM; in data set [3], 0.0014 µM; in data set [4], 0.0025 µM. The same molecule gave a half-life at 1 µM in data set [1] of 109 h. For the same molecule, the “Clhep,pred” value in data set [2] is on record as 0.53 mL/min/kg.

Consider `CCc1cc2ncc(CN3CCN(c4ccc(C(=O)NC)nc4C(F)F)CC3)cc2[nH]c1=O` [Example 14, 6-(difluoromethyl)-5-{4-[(7-ethyl-6-oxo-5H-1,5-naphthyridin-3-yl)methyl]piperazin-1-yl}-N-methylpyridine-2-carboxamide], for which the EC50 in data set [5] is over 30 µM; in data set [3], 0.00053 µM; in data set [4], 0.001 µM.

With `CCc1cc2ncc(CN3CCN(c4ccc(C(=O)NC)nc4)[C@H]4C[C@H]43)cc2[nH]c1=O` (single isomer, unassigned) [Example 3B], the EC50 was 29 µM in data set [5], 0.0015 µM in data set [3] and 0.0032 µM in data set [4].

One may read the half-life as the time in which the quantity being followed falls by half. Higher therefore signals slow decline. For orientation: EC50 means the concentration at which the effect is half-maximal.
